# How the values were obtained:
# [1] = test system: blackgrass (ALOMY) biotypes; test: Greenhouse test, control of resistant weed biotypes, post-emergence, blackgrass; format: in vivo, Alopecurus myosuroides; settings: post-emergence, scale 0 to 100
# Description: (§1) The herbicidal activity of herbicide A on resistant weed biotypes was tested in comparison with certain commercial herbicides by the following greenhouse experiments:
# (§2) The culture containers used were plastic flowerpots containing loamy sand with approximately 3.0% of humus as the substrate. The seeds of the test plants were sown separately for each species. Six blackgrass (ALOMY) (10-103, 10-170, 09-591, 10-123, 11-215, 11-146) and six ryeg rass (LOLMU) (12-166, 12-143, 12-165, 12-307, 13-304, 13-313) biotypes with varying degrees of resistance towards a range of modes of action according to the HRAC (Herbicide Resistance Action Committee) classification on mode of action 2010 (see e.g http://www.hracglobal.com/pages/classificationofherbicidesiteofaction.aspx) were tested alongside two non-resistant biotypes (14-116 and 13-243), see Tables 1 and 2 below.
# (§3) For the post-emergence treatment, the test plants were first grown to a height of 3 to 15 cm, depending on the plant habit, and only then treated with the active ingredients which had been suspended or emulsified in water. For this purpose, the test plants were either sown directly and grown in the same containers, or they were first grown separately as seedlings and transplanted into the test containers a few days prior to treatment.
# (§4) Depending on the species, the plants were kept at 10-25° C. or 20-35° C. The test period extended over 2 to 4 weeks. During this time, the plants were tended, and their response to the individual treatments was evaluated.
# (§5) The racemic mixture (±)-2-exo-(2-Methylbenzyloxy)-1-methyl-4-isopropyl-7-oxabicyclo[2.2.1]heptane was used as herbicide A and formulated as emulsifiable concentrates with an active ingredient concentration of 50 g/l, 100 g/l or 750 g/l respectively.
# (§6) Flufenacet was used as a commercial concentrated solution formulation having an active ingredient concentration of 500 g/l (Cadou).
# (§7) Imazamox was used as a water dispersible granule (70% WG).
# (§8) Evaluation of the herbicidal activity was carried out using a scale from 0 to 100. 100 means complete destruction of at least the aerial moieties, and 0 means no damage, or normal course of growth. A good herbicidal activity is given at values of at least 70 and a very good herbicidal activity is given at values of at least 85.
# [2] = test system: ryegrass (LOLMU) biotypes; test: Greenhouse test, control of resistant weed biotypes, post-emergence, ryegrass; format: in vivo, Lolium multiflorum; settings: post-emergence, scale 0 to 100
# Description: as §1, §2, §3, §4, §5, §6, §7, §8
# [3] = test system: GALAP; test: Greenhouse test, solo and combination, post-emergence, 20 DAT; format: in vivo, Galium aparine
# Description: (§9) The test plants have been seeded, separately for each species, in plastic containers in sandy loamy soil containing 5% of organic matter.
# (§10) For the post-emergence treatment, the plants were first grown to the 2 leaf station (GS 12) and applied at GS 12-19 depending on the species. The herbicidal compositions were suspended or emulsified in water as distribution medium and sprayed using finely distributing nozzles.
# (§11) The plants have been cultivated due to their individual requirements at 10-25° C. and 20-35° C. The plants were irrigated due to their necessity.
# (§12) The racemic mixture (±)-2-exo-(2-Methylbenzyloxy)-1-methyl-4-isopropyl-7-oxabicyclo[2.2.1]heptane was used as herbicide A and formulated as emulsifiable concentrate having an active ingredient concentration of 750 g/l.
# (§13) Cyhalofop-butyl (herbicide B.5) was used as an emulsifiable concentrate (EC) formulation having an active ingredient concentration of 200 g/l.
# (§14) Metsulfuron-methyl (herbicide B.53) was used as a water soluble granule (SG) formulation having an active ingredient concentration of 20%.
# (§15) Bispyribac-sodium (herbicide B.23) was used as a soluble concentrate (SL) formulation having an active ingredient concentration of 408 g/l.
# (§16) Quizalofop-P-ethyl (herbicide B.217) was used as a suspension concentrate (SC) formulation having an active ingredient concentration of 106 g/l.
# (§17) In the following experiments, the herbicidal activity for the individual herbicide compounds (solo and mixture applications) was assessed 20 days after treatment (DAT).
# (§18) The evaluation for the damage on undesired weeds caused by the chemical compositions was carried out using a scale from 0 to 100%, compared to the untreated control plants. Here, 0 means no damage and 100 means complete destruction of the plants.
# (§19) The plants used in the greenhouse experiments belonged to the following species:
# (§20) E=X+Y−(X·Y/100) • where X=effect in percent using herbicide A at an application rate a; • Y=effect in percent using herbicide B at application rate b; • E=expected effect (in %) of herbicide A+herbicide B at application rates a+b.
# (§21) The value E corresponds to the effect (plant damage or injury) which is to be expected if the activity of the individual compounds is additive. If the observed effect is higher than the value E calculated according to the Colby equation, a synergistic effect is present.
# (§22) Tables 3 to 6 below relate the herbicidal activity, in greenhouse trials, of the individual actives and the combination applied at different rates and ratios, in post-emergence application at 20 days after treatment (DAT).
# [4] = test system: MATIN; test: as above; format: in vivo, Matricaria inodora
# Description: as §9, §10, §11, §12, §13, §14, §15, §16, §17, §18, §19, §20, §21, §22
# [5] = test system: ALOMY; test: as above; format: in vivo, Alopecurus myosuroides; settings: solo application 1 g ai/ha
# Description: as §9, §10, §11, §12, §13, §14, §15, §16, §17, §18, §19, §20, §21, §22
# [6] = test system: BRSNW; test: as above; format: in vivo, Brassica napus
# Description: as §9, §10, §11, §12, §13, §14, §15, §16, §17, §18, §19, §20, §21, §22
# [7] = test system: PAPRH; test: as above; format: in vivo, Papaver rhoeas
# Description: as §9, §10, §11, §12, §13, §14, §15, §16, §17, §18, §19, §20, §21, §22
# [8] = test system: LOLRI; test: as above; format: in vivo, Lolium rigidum; settings: solo application 1 g ai/ha
# Description: as §9, §10, §11, §12, §13, §14, §15, §16, §17, §18, §19, §20, §21, §22
# [9] = BT 09-591, resistant HRAC group A, B, K, 125 g ai/ha
# [10] = BT 10-103, resistant HRAC group A, B, K, 125 g ai/ha
# [11] = BT 10-123, resistant HRAC group A, B, C, 125 g ai/ha
# [12] = BT 10-170, resistant HRAC group A, B, K, 125 g ai/ha
# [13] = BT 11-146, resistant HRAC group K, 125 g ai/ha
# [14] = BT 11-215, resistant HRAC group A, B, C, E, K, 125 g ai/ha
# [15] = BT 14-116, Sensitive standard, 125 g ai/ha
# [16] = BT 12-143, resistant HRAC group A, B, C, E, K, 125 g ai/ha
# [17] = BT 12-165, resistant HRAC group A, B, E, K, 125 g ai/ha
# [18] = BT 12-166, resistant HRAC group A, B, E, K, 125 g ai/ha
# [19] = BT 12-307, resistant HRAC group B, F, K, O, 125 g ai/ha
# [20] = BT 13-243, Sensitive standard, 125 g ai/ha
# [21] = BT 13-304, resistant HRAC group A, B, E, K, 125 g ai/ha
# [22] = BT 13-313, resistant HRAC group A, B, C, E, K, 125 g ai/ha
smiles,measurement,setting,value
"CC(C)N(C(=O)COc1nnc(C(F)(F)F)s1)c1ccc(F)cc1 [Flufenacet, flufenacet]",Herbicidal activity,[1]; [9],80
same,Herbicidal activity,"[1]; BT 09-591, resistant HRAC group A, B, K, 250 g ai/ha",95
same,Herbicidal activity,[1]; [10],75
same,Herbicidal activity,"[1]; BT 10-103, resistant HRAC group A, B, K, 250 g ai/ha",90
same,Herbicidal activity,[1]; [11],80
same,Herbicidal activity,"[1]; BT 10-123, resistant HRAC group A, B, C, 250 g ai/ha",95
same,Herbicidal activity,[1]; [12],90
same,Herbicidal activity,"[1]; BT 10-170, resistant HRAC group A, B, K, 250 g ai/ha",95
same,Herbicidal activity,[1]; [13],70
same,Herbicidal activity,"[1]; BT 11-146, resistant HRAC group K, 250 g ai/ha",80
same,Herbicidal activity,[1]; [14],75
same,Herbicidal activity,"[1]; BT 11-215, resistant HRAC group A, B, C, E, K, 250 g ai/ha",95
same,Herbicidal activity,[1]; [15],98
same,Herbicidal activity,"[1]; BT 14-116, Sensitive standard, 250 g ai/ha",100
same,Herbicidal activity,[2]; [16],60
same,Herbicidal activity,"[2]; BT 12-143, resistant HRAC group A, B, C, E, K, 250 g ai/ha",60
same,Herbicidal activity,[2]; [17],60
same,Herbicidal activity,"[2]; BT 12-165, resistant HRAC group A, B, E, K, 250 g ai/ha",60
same,Herbicidal activity,[2]; [18],10
same,Herbicidal activity,"[2]; BT 12-166, resistant HRAC group A, B, E, K, 250 g ai/ha",60
same,Herbicidal activity,[2]; [19],15
same,Herbicidal activity,"[2]; BT 12-307, resistant HRAC group B, F, K, O, 250 g ai/ha",15
same,Herbicidal activity,[2]; [20],80
same,Herbicidal activity,"[2]; BT 13-243, Sensitive standard, 250 g ai/ha",95
same,Herbicidal activity,[2]; [21],75
same,Herbicidal activity,"[2]; BT 13-304, resistant HRAC group A, B, E, K, 250 g ai/ha",75
same,Herbicidal activity,[2]; [22],35
same,Herbicidal activity,"[2]; BT 13-313, resistant HRAC group A, B, C, E, K, 250 g ai/ha",50
COC(=O)c1ccccc1S(=O)(=O)NC(=O)Nc1nc(C)nc(OC)n1 [metsulfuron-methyl],Herbicidal activity,[3]; solo application 4 g ai/ha,30%
same,Herbicidal activity,[3]; solo application 8 g ai/ha,25%
same,Herbicidal activity,[4]; solo application 1 g ai/ha,90%
same,Herbicidal activity,[4]; solo application 2 g ai/ha,90%
same,Herbicidal activity,[4]; solo application 4 g ai/ha,85%
same,Herbicidal activity,[4]; solo application 8 g ai/ha,90%
same,Herbicidal activity,[5],0%
same,Herbicidal activity,[6]; solo application 1 g ai/ha,90%
same,Herbicidal activity,[6]; solo application 2 g ai/ha,95%
same,Herbicidal activity,[6]; solo application 8 g ai/ha,98%
same,Herbicidal activity,[7]; solo application 1 g ai/ha,0%
same,Herbicidal activity,[7]; solo application 4 g ai/ha,50%
same,Herbicidal activity,[7]; solo application 8 g ai/ha,98%
same,Herbicidal activity,[8],10%
"COCc1cnc(C2=NC(C)(C(C)C)C(=O)N2)c(C(=O)O)c1 (stereo not shown) [Imazamox, imazamox]",Herbicidal activity,"[1]; BT 09-591, resistant HRAC group A, B, K, 62.5 g ai/ha",20
same,Herbicidal activity,[1]; [9],50
same,Herbicidal activity,"[1]; BT 10-103, resistant HRAC group A, B, K, 62.5 g ai/ha",60
same,Herbicidal activity,[1]; [10],70
same,Herbicidal activity,"[1]; BT 10-123, resistant HRAC group A, B, C, 62.5 g ai/ha",60
same,Herbicidal activity,[1]; [11],70
same,Herbicidal activity,"[1]; BT 10-170, resistant HRAC group A, B, K, 62.5 g ai/ha",80
same,Herbicidal activity,[1]; [12],95
same,Herbicidal activity,"[1]; BT 11-146, resistant HRAC group K, 62.5 g ai/ha",75
same,Herbicidal activity,[1]; [13],75
same,Herbicidal activity,"[1]; BT 11-215, resistant HRAC group A, B, C, E, K, 62.5 g ai/ha",85
same,Herbicidal activity,[1]; [14],85
same,Herbicidal activity,"[1]; BT 14-116, Sensitive standard, 62.5 g ai/ha",95
same,Herbicidal activity,[1]; [15],95
same,Herbicidal activity,"[2]; BT 12-143, resistant HRAC group A, B, C, E, K, 62.5 g ai/ha",65
same,Herbicidal activity,[2]; [16],75
same,Herbicidal activity,"[2]; BT 12-165, resistant HRAC group A, B, E, K, 62.5 g ai/ha",70
same,Herbicidal activity,[2]; [17],85
same,Herbicidal activity,"[2]; BT 12-166, resistant HRAC group A, B, E, K, 62.5 g ai/ha",85
same,Herbicidal activity,[2]; [18],98
same,Herbicidal activity,"[2]; BT 12-307, resistant HRAC group B, F, K, O, 62.5 g ai/ha",80
same,Herbicidal activity,[2]; [19],85
same,Herbicidal activity,"[2]; BT 13-243, Sensitive standard, 62.5 g ai/ha",90
same,Herbicidal activity,[2]; [20],85
same,Herbicidal activity,"[2]; BT 13-304, resistant HRAC group A, B, E, K, 62.5 g ai/ha",90
same,Herbicidal activity,[2]; [21],85
same,Herbicidal activity,"[2]; BT 13-313, resistant HRAC group A, B, C, E, K, 62.5 g ai/ha",80
same,Herbicidal activity,[2]; [22],85

# From patent US12336536B2, “Method for controlling herbicide resistant or tolerant weeds” (BASF Agro B.V., priority 2015, dated 2025)
